Data on 1 compound can be found in PMC9102431, “Natural Compound Shikonin Is a Novel PAK1 Inhibitor and Enhances Efficacy of Chemotherapy against Pancreatic Cancer Cells” (Molecules, 2022).

For this experiment, the target named is PAK1 (Homo sapiens, UniProt Q13153). As to the kind of experiment: ADP-Glo kinase assay with human recombinant PAK1 (also labchip-based screen). Type of experiment: biochemical. (In ADP-Glo the light output rises with the ADP produced.)
Sequence of PAK1 (Q13153 2-545): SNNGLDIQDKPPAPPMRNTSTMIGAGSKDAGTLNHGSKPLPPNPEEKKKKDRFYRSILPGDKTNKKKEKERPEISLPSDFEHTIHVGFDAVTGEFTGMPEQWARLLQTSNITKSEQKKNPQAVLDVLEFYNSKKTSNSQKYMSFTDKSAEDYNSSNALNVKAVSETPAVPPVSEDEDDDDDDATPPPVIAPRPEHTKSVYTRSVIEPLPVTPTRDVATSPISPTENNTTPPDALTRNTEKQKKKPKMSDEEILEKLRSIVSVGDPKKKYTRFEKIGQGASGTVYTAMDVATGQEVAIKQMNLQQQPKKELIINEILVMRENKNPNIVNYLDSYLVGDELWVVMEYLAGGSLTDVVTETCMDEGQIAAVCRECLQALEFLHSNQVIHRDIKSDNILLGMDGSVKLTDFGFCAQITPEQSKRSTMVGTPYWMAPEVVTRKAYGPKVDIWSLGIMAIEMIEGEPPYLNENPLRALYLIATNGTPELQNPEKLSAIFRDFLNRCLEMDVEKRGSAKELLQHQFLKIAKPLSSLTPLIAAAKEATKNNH

Take `CC(C)=CC[C@@H](O)C1=CC(=O)c2c(O)ccc(O)c2C1=O` [shikonin]: the IC50 (as a rule, the concentration needed to halve the response being measured) was determined as 7.252 ± 0.054 µM.
